# Columns and labels:
# Type in all cases: in vitro ADME
# [1] = Simulated Gastric Fluid stability assay; conditions: simulated gastric fluid (SGF) with pepsin, pH 1.2; SGF pH about 1.2 with pepsin, 37° C.; read-out: T½ in SGF (converted)
# Experimental: General Experimental: Simulated Gastric Fluid (SGF) is a pH 1.2 HCl solution with purified pepsin (800-2500 units of activity) (Test Solutions, The United States Pharmacopoeia (USP), 2008). SGF was prepared according to a procedure described in Test Solution—USP and other published articles (Bioorganic Chemistry, 49 (2013), 40-48). Sodium chloride 0.20 g and purified pepsin 0.32 g (Sigma), derived from porcine stomach mucosa with an activity of 800 to 2500 units per mg of protein, were dissolved in 0.70 mL hydrochloric acid and sufficient water to make 100 mL. […] The SGF solution prepared was used for in vitro studies to evaluate the prodrug stability.
# At specified time intervals, aliquots (100 μL) were withdrawn and added to pre-cooled 100% acetonitrile (200 μL spiked with ISTD) and mixed well by vortex mixing for 2 min. The mixture was centrifuged at 13000 rpm for 15 min at 4° C.
# [2] = Liver microsome stability assay (HLM); conditions: human, microsomes, pH 7.4; 3 μM test compound, NADPH; read-out: T½ in HLM
# Experimental: (§1) General Experimental: Human and mouse liver microsomes were purchased from Xenotech at 20 mg/mL. NADPH (Sigma-Aldrich) 10 mM stocks were prepared in deionized water.
# (§2) Procedure for Liver Microsome Stability Assay: Test compounds and positive controls were dissolved in 100% DMSO to make 10 mM stock solutions. Verapamil (Sigma-Aldrich) and diphenhydramine (Sigma-Aldrich) were used as positive controls for both human liver microsomes (HLM) and mouse liver microsomes (MLM). The 10 mM stock solutions of test and control compounds were further diluted in potassium phosphate buffer (100 mM, pH 7.4) to 500 μM to ensure that the organic solvent content was <0.2%. The liver microsome (HLM or MLM) assay was prepared in a 1.5 mL Eppendorf tube with a final volume of 1100 μL for duplicate runs. Each reaction contained phosphate buffer (928.4 μL), liver microsomes (55 μL), and test compound (6.6 μL of 500 μM), resulting in a final concentration of 3 μM for the test compound. The reaction was initiated with 110 μL of 10 mM NADPH. Aliquots (100 μL) were removed in duplicate at 0, 5, 10, 15, and 30 min and quenched in […] of 100% cold methanol which contained internal standard (ISTD: d5-7-ethoxy coumarin 2 μM). The aliquots were centrifuged at 12,000 g for 5 min, and the supernatant was transferred and placed in an LC-MS vial. Each time point was assessed by LC-MS/MS, and the area under the m/z curve (AUC), based on the MRM transition, was integrated w.r.t the ISTD. Positive controls were conducted at a final volume of 550 μL to enable a single run for each time point. Negative controls in the absence of NADPH were performed with the test and control compounds, respectively, at a final volume of 150 μL and measured at the most prolonged time point. Control compounds were processed and analyzed like test compounds. Each time point was run in triplicates on LC-MS/MS followed by in-between blank washes to avoid the carryover and to equilibrate the column. Half-life (T1/2) was calculated using the data obtained from LC-MS/MS and by plotting ln (% remaining of the parent prodrug) versus time and performing linear regression to determine slope. Slope=−k and T1/2=0.693/k for first-order kinetics.
# [3] = Brain homogenate stability assay; conditions: mouse brain homogenate, 37° C.
# Description: General Experimental: Purchases were made for DPBS (1X) (Gibco) and Pierce BCA Assay kit for protein quantification (Thermo Fischer). Frozen mouse brain homogenate was provided by Dr. Scott Myers at Emory University School of Medicine (C57BL/6J adult male mice (Jackson Laboratory), 239 days (34 weeks) old). Briefly, each mouse was euthanized via isoflurane overdose and immediately upon cessation of breathing the chest cavity was opened and the left ventricle punctured with a 21G needle, the vena cava was then clipped and the body perfused with cold PBS (pH 7.35) for 2 min. Following, the brain was removed (on ice) and the forebrain separated from the cerebellum. The forebrain wet weight was recorded and placed into 3 mL ice cold HBSS (Hank's Balanced Salt Solution, pH 7.4), and then homogenized for 10 secs at 3/4 max setting. […] The amount of protein in the mouse brain homogenate was quantified using the Pierce BCA assay kit before running the stability assay.
# Procedure for Brain Homogenate Stability Assay: 10 mM stock solution was prepared in 100% DMSO for each test compound. […] The supernatant was transferred into the HPLC vials, and measured by LC-MS/MS. Half-life (T1/2) was calculated using the data obtained from LC-MS/MS and by plotting ln (% remaining of the parent prodrug) versus time and performing linear regression to determine slope. […]
# [4] = Liver microsome stability assay (MLM); conditions: mouse, mouse liver microsomes, pH 7.4; 3 μM test compound, NADPH; read-out: T 1/2 in MLM
# Experimental: as §1
# as §2, with “Each time point was run in triplicates on LC-MS/MS followed by in-between blank washes to avoid the carryover and to equilibrate the column.” left out, “Slope=−k and T1/2=0.693/k for first-order kinetics.” left out
smiles,measurement,setting,value
"C=C(C)[C@@H]1CCC(C)=C[C@H]1c1c(O)cc(CCCCC)cc1OC(=O)C1(OP(=O)(O)O)CC1.N.N [7b, 1-((((1′R,2′R)-6-hydroxy-5′-methyl-4-pentyl-2′-(prop-1-en-2-yl)-1′,2′,3′,4′-tetrahydro-[1,1′-biphenyl]-2-yl)oxy)carbonyl)cyclopropyl phosphate di-ammonium salt]",half-life at 2 mM,[1],> 3 h
same,half-life,[2],2.62 h
same,brain homogenate stability (metabolism and metabolite formation),[3],metabolism of compound 7b and formation of CBD
same,half-life at 3 μM,[4],0.55 h

# From US20250108064A1, “PHOSPHATE PRODRUGS OF CANNABINOIDS” (priority 2021, published 2025)
